Test results as given in US12084445B2, “Broad-spectrum carbapenems” (VenatoRx Pharmaceuticals, Inc., priority 2018, dated 2024).
Like-named read-outs stand apart in the source and are kept apart here.

How the values were obtained:
Format in all cases: cell-based
[1] = test system: E. coli ATCC 25922 (wild-type/QC strain); assay: broth microdilution MIC assay, E. coli ATCC 25922; settings: Escherichia coli, ATCC25922, E. coli 25922, read-out: E. coli 25922 MIC
How it was run: (§1)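 Following CLSI guidance, bacteria were exposed to twofold compound dilution series at a starting density of 5×10^5 CFU/mL in cation-adjusted Mueller-Hinton broth. After overnight incubation (16-20 h, 37 °C), the lowest well lacking growth was taken as the MIC.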

[2] = test system: S. aureus ATCC 33591 (methicillin-resistant); assay: broth microdilution MIC assay, S. aureus ATCC 33591; settings: Staphylococcus aureus
How it was run: as §1

[3] = test system: P. aeruginosa ATCC 27853 (wild-type/QC strain); assay: broth microdilution MIC assay, P. aeruginosa ATCC 27853; settings: Pseudomonas aeruginosa, ATCC27853, P. aeruginosa 27853, read-out: P. aeruginosa 27853 MIC
How it was run: as §1

[4] = test system: S. aureus ATCC 29213 (methicillin sensitive); assay: broth microdilution MIC assay, S. aureus ATCC 29213; settings: Staphylococcus aureus, ATCC 29213 / MSSA; Table 3; S. aureus 29213 (MSSA); read-out: S. aureus 29213 (MSSA) MIC
Procedure: (§2) To determine the ability of test compounds to potentiate the inhibition of the growth of bacterial strains, classic cell-based broth microdilution MIC assays were employed. MIC assays are performed according to CLSI methods except where otherwise noted (CLSI, 2011 and CLSI, 2009). The reference strains S. aureus ATCC 29213 (methicillin sensitive), S. aureus ATCC 33591 (methicillin-resistant), E. coli ATCC 25922 (wild-type/QC strain), P. aeruginosa ATCC 27853 (wild-type/QC strain), and the clinical isolate P. aeruginosa PA 8 were used to determine the ability of the exemplary carbapenem compounds to inhibit bacterial growth. An expanded panel of methicillin resistance S. aureus (MRSA) and Pseudomonas was also used to determine the ability of exemplary carbapenem compounds to inhibit bacterial growth across a broader representation of those species. To determine activity in MRSA and in addition to S. aureus ATCC 33591, S. aureus USA 300, USA 400 and USA 600, some of the most common clones found to cause human infection, were also used. To further gauge the impact on the carbapenem compounds due to various resistance mechanisms in Pseudomonas, the following strains were included: P. aeruginosa 35151 (hyper-permeable strain), P. aeruginosa AmexAB-OprM (an efflux pump knockout), and P. aeruginosa PA 3 (a clinical isolate of reduced carbapenem susceptibility). Briefly, cryo-preserved bacterial cultures of clinical strains are streaked for isolation on appropriate agar medium, in this case Mueller Hinton II agar. Following incubation to allow formation of colonies, these plates are sealed with parafilm and stored refrigerated for up to two weeks. For preparation of assay inocula and to ensure low variability, at least 5 colonies are picked from the agar plates with an inoculating loop and aseptically transferred to a culture tube containing 3 mL of Mueller-Hinton Broth (supplemented with divalent cations to required levels based on Manufacturers' specification). The broth culture is grown for 3-5 hours at 37° C. with shaking at 200 rpm. Meanwhile, 2-fold serial dilutions of test compounds are conducted in a 96 well plate with a final volume of 75 μL per well at 2-fold the final desired concentration. After the dilution plates are set up the growing cultures are then diluted in a cuvette containing MH II broth and the optical density is measured at 600 nm. Inocula are diluted such that 75 μL of this culture in Mueller-Hinton Broth results in a starting bacterial concentration of 5×10^5 CFU/mL when added to the dilution plates. The plates are incubated 16-20 hours at 37° C. The MIC is read visually as the lowest concentration well with no bacterial growth.
(§3) Representative results are shown in Tables 3, 4, and 5 where A represents an MIC>32 μg/mL, B represents an MIC between 8 and 32 μg/mL inclusive, C represents an MIC between 1 and 4 μg/mL inclusive, and D represents an MIC of <1 μg/mL. NT=Not Tested.

[5] = test system: P. aeruginosa 35151 (hyper-permeable strain); assay: broth microdilution MIC assay, P. aeruginosa 35151; settings: Pseudomonas aeruginosa, read-out: P. aeruginosa 35151 MIC
Procedure: as §2, §3

[6] = test system: P. aeruginosa ΔmexAB-OprM (an efflux pump knockout); assay: broth microdilution MIC assay, P. aeruginosa ΔmexAB-OprM; settings: Pseudomonas aeruginosa, 20 h, read-out: P. aeruginosa ΔmexAB-OprM MIC
Procedure: as §2, §3

S. aureus USA 300 = assay: broth microdilution MIC assay, S. aureus USA 300; settings: Staphylococcus aureus; Table 4; S. aureus USA300; read-out: S. aureus USA300 MIC
Procedure: as §2, §3

S. aureus USA600 = assay: broth microdilution MIC assay, S. aureus USA 600; settings: Staphylococcus aureus; Table 4; S. aureus USA600; read-out: S. aureus USA600 MIC
Procedure: as §2, §3

[7] = ATCC 33591 / MRSA, Table 3, S. aureus 33591 (MRSA), read-out: S. aureus 33591 (MRSA) MIC
[8] = ATCC33591, Table 4, S. aureus 33591, read-out: S. aureus 33591 MIC

For C[C@@H](O)[C@H]1C(=O)N2C(C(=O)O)=C(S[C@@H]3CCN(C4CCNCC4)C3)[C@H](C)[C@H]12 [Example 1, (4R,5S,6S)-6-((R)-1-hydroxyethyl)-4-methyl-7-oxo-3-(((R)-1-(piperidin-4-yl)pyrrolidin-3-yl)thio)-1-azabicyclo[3.2.0]hept-2-ene-2-carboxylic acid], the MIC ([1]; Table 3) was under 1 µg/mL, the MIC [2, 7] was 8 to 32 µg/mL and the MIC ([3]; Table 3) was 1 to 4 µg/mL. For the same compound, the MIC [4] was under 1 µg/mL.

C[C@@H](O)[C@H]1C(=O)N2C(C(=O)O)=C(S[C@@H]3C[C@@H](CO)N(C4CCNCC4)C3)[C@H](C)[C@H]12 [Example 5, (4R,5S,6S)-6-((R)-1-hydroxyethyl)-3-(((3R,5S)-5-(hydroxymethyl)-1-(piperidin-4-yl)pyrrolidin-3-yl)thio)-4-methyl-7-oxo-1-azabicyclo[3.2.0]hept-2-ene-2-carboxylic acid] gave an MIC ([1]; Table 3) of under 1 µg/mL, an MIC [2, 7] of 8 to 32 µg/mL and an MIC ([3]; Table 3) of 1 to 4 µg/mL. It also gave an MIC [4] of under 1 µg/mL.

In the case of CCN[C@H]1CC[C@@H](CN2CC(SC3=C(C(=O)O)N4C(=O)[C@H]([C@@H](C)O)[C@H]4[C@H]3C)C2)CC1 [Example 70, (4R,5S,6S)-3-((1-(((1s,4S)-4-(ethylamino)cyclohexyl)methyl)azetidin-3-yl)thio)-6-((R)-1-hydroxyethyl)-4-methyl-7-oxo-1-azabicyclo[3.2.0]hept-2-ene-2-carboxylic acid], the MIC ([1]; Table 4) is reported as under 1 µg/mL, the MIC [5] is reported as under 1 µg/mL and the MIC [2, 8] is reported as 1 to 4 µg/mL. It also gave an MIC [6] of 1 to 4 µg/mL, an MIC ([3]; Table 5) of 1 to 4 µg/mL and an MIC (S. aureus USA 300) of 1 to 4 µg/mL. It also gave an MIC (S. aureus USA600) of 1 to 4 µg/mL.

C[C@@H](O)[C@H]1C(=O)N2C(C(=O)O)=C(SC3CN(CCC4CCN(C(=N)N)CC4)C3)[C@H](C)[C@H]12 [Example 71, (4R,5S,6S)-3-((1-(2-(1-carbamimidoylpiperidin-4-yl)ethyl)azetidin-3-yl)thio)-6-((R)-1-hydroxyethyl)-4-methyl-7-oxo-1-azabicyclo[3.2.0]hept-2-ene-2-carboxylic acid] gave an MIC ([1]; Table 4) of under 1 µg/mL, an MIC [5] of under 1 µg/mL and an MIC [2, 8] of 1 to 4 µg/mL. For the same compound, the MIC [6] was 1 to 4 µg/mL, the MIC ([3]; Table 5) was 1 to 4 µg/mL and the MIC (S. aureus USA 300) was 1 to 4 µg/mL. The MIC (S. aureus USA600) was under 1 µg/mL.

With C[C@@H](O)[C@H]1C(=O)N2C(C(=O)O)=C(SC3CN(C[C@H]4CC[C@H](N(C)C(=N)N)CC4)C3)[C@H](C)[C@H]12 [Example 72, (4R,5S,6S)-6-((R)-1-hydroxyethyl)-4-methyl-3-((1-(((1r,4R)-4-(1-methylguanidino)cyclohexyl)methyl)azetidin-3-yl)thio)-7-oxo-1-azabicyclo[3.2.0]hept-2-ene-2-carboxylic acid] the MIC ([1]; Table 4) was under 1 µg/mL, the MIC [5] was under 1 µg/mL and the MIC [2, 8] was 1 to 4 µg/mL. It also gave an MIC [6] of 1 to 4 µg/mL, an MIC ([3]; Table 5) of 8 to 32 µg/mL and an MIC (S. aureus USA 300) of 1 to 4 µg/mL. The MIC (S. aureus USA600) was under 1 µg/mL.

With C[C@@H](O)[C@H]1C(=O)N2C(C(=O)O)=C(SC3CN(C[C@H]4CC[C@@H](NC(=N)N)CC4)C3)[C@H](C)[C@H]12 [Example 73, (4R,5S,6S)-3-((1-(((1s,4S)-4-guanidinocyclohexyl)methyl)azetidin-3-yl)thio)-6-((R)-1-hydroxyethyl)-4-methyl-7-oxo-1-azabicyclo[3.2.0]hept-2-ene-2-carboxylic acid] the MIC ([1]; Table 4) was under 1 µg/mL, the MIC [5] was under 1 µg/mL and the MIC [2, 8] was 1 to 4 µg/mL. It also gave an MIC [6] of under 1 µg/mL, an MIC ([3]; Table 5) of 1 to 4 µg/mL and an MIC (S. aureus USA 300) of 1 to 4 µg/mL. The MIC (S. aureus USA600) was under 1 µg/mL.

For C[C@@H](O)[C@H]1C(=O)N2C(C(=O)O)=C(SC3CN(C[C@H]4CC[C@@H](N(C)C(=N)N)CC4)C3)[C@H](C)[C@H]12 [Example 74, (4R,5S,6S)-6-((R)-1-hydroxyethyl)-4-methyl-3-((1-(((1s,4S)-4-(1-methylguanidino)cyclohexyl)methyl)azetidin-3-yl)thio)-7-oxo-1-azabicyclo[3.2.0]hept-2-ene-2-carboxylic acid], the MIC ([1]; Table 4) was under 1 µg/mL, the MIC [5] was under 1 µg/mL and the MIC [2, 8] was 1 to 4 µg/mL. It also gave an MIC [6] of 1 to 4 µg/mL, an MIC ([3]; Table 5) of 8 to 32 µg/mL and an MIC (S. aureus USA 300) of 1 to 4 µg/mL. For the same compound, the MIC (S. aureus USA600) was 1 to 4 µg/mL.
